Test results reported in ChEMBL document CHEMBL1201862, “PubChem BioAssay data set” (2004).
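Each compound was tested at five concentrations against cells in 96-well plates for 48 hours. GI50 marks 50% less growth.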 Active and inactive are the calls of the source. Cut-off read from the data, not from the text of the source: active = GI50 up to about 1.1 µM and inactive = higher. Peptide text beside a SMILES is read from it. * marks the point of attachment. Cbz = O=C(OCc1ccccc1)*; Boc = CC(C)(C)OC(=O)*; OBn = c1ccc(CO*)cc1

What was measured:
Assay in all cases: NCI anticancer screen, dose series, 48 h
HCT-15 = test system: HCT-15
SK-MEL-28 = test system: SK-MEL-28
SF-268 = test system: SF-268
OVCAR-8 = test system: OVCAR-8
MCF7 = test system: MCF7
NCI/ADR-RES = test system: NCI/ADR-RES
TK-10 = test system: TK-10
OVCAR-3 = test system: OVCAR-3
K562 = test system: K562
NCI-H522 = test system: NCI-H522
IGROV-1 = test system: IGROV-1
ACHN = test system: ACHN
UACC-62 = test system: UACC-62
HL-60 = test system: HL-60
Hs-578T = test system: Hs-578T
SF-539 = test system: SF-539
CCRF-CEM = test system: CCRF-CEM
LOX IMVI = test system: LOX IMVI
SK-OV-3 = test system: SK-OV-3

Structure (SMILES)	GI50 (HCT-15)	GI50 (SK-MEL-28)	GI50 (SF-268)	GI50 (OVCAR-8)	GI50 (MCF7)	GI50 (NCI/ADR-RES)	GI50 (TK-10)	GI50 (OVCAR-3)	GI50 (K562)	GI50 (NCI-H522)	GI50 (IGROV-1)	GI50 (ACHN)	GI50 (UACC-62)	GI50 (HL-60)	GI50 (Hs-578T)	GI50 (SF-539)	GI50 (CCRF-CEM)	GI50 (LOX IMVI)	GI50 (SK-OV-3)
CC(C)CCC1(O)O[C@H]2C[C@H]3[C@@H]4CCC5CC(=O)C=C[C@]5(C)[C@H]4CC[C@]3(C)[C@H]2[C@@H]1C (stereo not given in full)	11.2 µM	11.5 µM (inactive)	13.4 µM (inactive)	14.2 µM (inactive)	7.73 µM (inactive)	15.6 µM (inactive)	11.8 µM (inactive)	10.8 µM (inactive)	5.07 µM (inactive)	1.8 µM (inactive)	15.6 µM (inactive)	13.7 µM (inactive)	14.6 µM (inactive)	4.45 µM (inactive)	2.82 µM (inactive)	17.6 µM (inactive)	3.18 µM (inactive)	12.7 µM (inactive)	18.8 µM (inactive)
NC(=O)Cc1ncn(-c2ccccc2)n1	> 100 µM		> 100 µM (inactive)	> 100 µM (inactive)	> 100 µM (inactive)	> 100 µM (inactive)	> 100 µM (inactive)	> 100 µM (inactive)	> 100 µM (inactive)	> 100 µM (inactive)	> 100 µM (inactive)	> 100 µM (inactive)	> 100 µM (inactive)	> 100 µM (inactive)	> 100 µM (inactive)	> 100 µM (inactive)	> 100 µM (inactive)	> 100 µM (inactive)	> 100 µM (inactive)
COc1ccccc1C(=O)c1ccc2ccccc2c1	9.55 µM	39.3 µM (inactive)	30.5 µM (inactive)	26.4 µM (inactive)	8.15 µM (inactive)	41.3 µM (inactive)	17.8 µM (inactive)	9.4 µM (inactive)	4 µM (inactive)	5.85 µM (inactive)	11.3 µM (inactive)	41.2 µM (inactive)	7.48 µM (inactive)	3.21 µM (inactive)	12.3 µM (inactive)	5.74 µM (inactive)	20.2 µM (inactive)	12.6 µM (inactive)	
CCOC(=O)C(NC(=O)CC)(Nc1ccc(F)c(Cl)c1)C(F)(F)F (stereo not given)	> 83.4 µM	> 100 µM (inactive)	> 100 µM (inactive)	> 100 µM (inactive)	> 100 µM (inactive)	78.2 µM (inactive)	> 100 µM (inactive)	> 100 µM (inactive)	> 29.2 µM (inactive)	> 100 µM (inactive)	> 100 µM (inactive)	> 55.8 µM (inactive)	34.4 µM (inactive)	> 36.2 µM (inactive)	> 100 µM (inactive)	> 100 µM (inactive)	35.6 µM (inactive)		> 100 µM (inactive)
CN(C(=O)CC(=O)CP(=O)(c1ccccc1)c1ccccc1)c1ccccc1	> 100 µM	> 100 µM (inactive)	> 100 µM (inactive)	> 100 µM (inactive)	> 100 µM (inactive)	> 100 µM (inactive)	> 100 µM (inactive)	> 100 µM (inactive)	> 100 µM (inactive)	> 100 µM (inactive)	> 100 µM (inactive)	> 100 µM (inactive)	> 100 µM (inactive)	> 100 µM (inactive)	> 100 µM (inactive)	> 100 µM (inactive)	> 100 µM (inactive)		> 100 µM (inactive)
N#Cc1c(N2CCOCC2)[nH]c(=O)c(C(c2c(Cl)cccc2Cl)c2c(O)c(C#N)c(N3CCOCC3)[nH]c2=O)c1O	15 µM	17.9 µM (inactive)	19.5 µM (inactive)	18.6 µM (inactive)	16.7 µM (inactive)	27.4 µM (inactive)	17.5 µM (inactive)	16.4 µM (inactive)	11.2 µM (inactive)	13.4 µM (inactive)	18.1 µM (inactive)	16.1 µM (inactive)	16.6 µM (inactive)	12.9 µM (inactive)	19.5 µM (inactive)	19.1 µM (inactive)	15.1 µM (inactive)	13 µM (inactive)	
CCCCCCCCCCCCCCCCCCNc1nc(=O)n(C2CC(O)C(COP(=O)(O)OCC(COP(=O)(O)OC3C(CO)OC(n4ccc(N)nc4=O)C3O)OCCCCCCCCCCCCCCCCCC)O2)cc1F (stereo not given)	34 µM	69.7 µM (inactive)	91.6 µM (inactive)	18.6 µM (inactive)	8.71 µM (inactive)	> 100 µM (inactive)	33.1 µM (inactive)	> 100 µM (inactive)	22.9 µM (inactive)	11.9 µM (inactive)	46.8 µM (inactive)	23.3 µM (inactive)	> 100 µM (inactive)	8.36 µM (inactive)	78.5 µM (inactive)	17.4 µM (inactive)	0.402 µM (active)	16.7 µM (inactive)	99.3 µM (inactive)
Cc1nc(O)c2ncn(CCO)c2n1	> 100 µM	> 100 µM (inactive)	> 100 µM (inactive)	> 100 µM (inactive)	> 100 µM (inactive)	> 100 µM (inactive)	> 100 µM (inactive)	> 100 µM (inactive)	> 100 µM (inactive)	> 100 µM (inactive)	> 100 µM (inactive)	> 100 µM (inactive)	> 100 µM (inactive)	> 100 µM (inactive)	> 100 µM (inactive)	> 100 µM (inactive)	> 100 µM (inactive)	> 100 µM (inactive)	> 100 µM (inactive)
Nc1c(F)c(F)c2c(c1F)N(CCCCCl)c1ccccc1S2	> 100 µM	> 100 µM (inactive)	> 100 µM (inactive)		> 100 µM (inactive)	> 100 µM (inactive)	> 100 µM (inactive)	> 100 µM (inactive)	> 100 µM (inactive)	> 100 µM (inactive)	> 100 µM (inactive)	> 100 µM (inactive)	> 100 µM (inactive)	> 100 µM (inactive)	> 100 µM (inactive)	> 100 µM (inactive)	> 100 µM (inactive)	> 100 µM (inactive)	> 100 µM (inactive)
CC(=O)NCCCCNCCCNC(C)=O	> 100 µM	> 100 µM (inactive)	> 100 µM (inactive)	> 100 µM (inactive)	> 100 µM (inactive)	> 100 µM (inactive)	> 100 µM (inactive)		> 100 µM (inactive)	> 100 µM (inactive)	> 100 µM (inactive)	> 100 µM (inactive)	> 100 µM (inactive)	> 100 µM (inactive)	> 100 µM (inactive)	> 100 µM (inactive)	> 100 µM (inactive)	> 100 µM (inactive)	> 100 µM (inactive)
Cn1cc(NC(=O)Nc2cc(C(=O)Nc3cc(C(=O)Nc4ccc(S(=O)(=O)O)c5cc(S(=O)(=O)O)ccc45)n(C)c3)n(C)c2)cc1C(=O)Nc1cc(C(=O)Nc2ccc(S(=O)(=O)O)c3cc(S(=O)(=O)O)ccc23)n(C)c1	> 100 µM	> 100 µM (inactive)	> 100 µM (inactive)	> 100 µM (inactive)	> 100 µM (inactive)	> 100 µM (inactive)	83.8 µM (inactive)	> 100 µM (inactive)	> 100 µM (inactive)	> 100 µM (inactive)	> 100 µM (inactive)	> 100 µM (inactive)	> 100 µM (inactive)	> 100 µM (inactive)	> 100 µM (inactive)	> 100 µM (inactive)	> 100 µM (inactive)		> 100 µM (inactive)
COC(=O)[C@H](Cc1ccccc1)NP(=O)(OCCC#N)OCC1OC(n2cc(C)c(=O)[nH]c2=O)CC1N=[N+]=[N-] (stereo not given in full)	> 100 µM		> 100 µM (inactive)	> 100 µM (inactive)	> 100 µM (inactive)	> 100 µM (inactive)	> 100 µM (inactive)		> 100 µM (inactive)	35 µM (inactive)	> 100 µM (inactive)	> 100 µM (inactive)	> 100 µM (inactive)	> 100 µM (inactive)	> 100 µM (inactive)		> 100 µM (inactive)	> 100 µM (inactive)	> 100 µM (inactive)
COC(=O)C(CCCCNC(=O)OCc1ccccc1)NC(=O)C(CCC(=O)OCc1ccccc1)NC(=O)OC(C)(C)C (stereo not given) (Boc-Glu(OBn)-Lys(Cbz)-OMe; configuration not given here)	> 100 µM	64 µM (inactive)	> 100 µM (inactive)	> 100 µM (inactive)	> 100 µM (inactive)	> 100 µM (inactive)	> 100 µM (inactive)	73.1 µM (inactive)	> 100 µM (inactive)	56.9 µM (inactive)	> 100 µM (inactive)	> 100 µM (inactive)	43 µM (inactive)	> 100 µM (inactive)	27.7 µM (inactive)	> 100 µM (inactive)		> 100 µM (inactive)	46.6 µM (inactive)
O=C1CSC(=S)N1 [RHODANINE]	> 100 µM	> 100 µM (inactive)	> 100 µM (inactive)	> 100 µM (inactive)	> 100 µM (inactive)	> 100 µM (inactive)	> 100 µM (inactive)	> 100 µM (inactive)	> 100 µM (inactive)	> 100 µM (inactive)	> 100 µM (inactive)	> 100 µM (inactive)		> 100 µM (inactive)	> 100 µM (inactive)	> 100 µM (inactive)	> 100 µM (inactive)	> 100 µM (inactive)	
Cc1cn([C@H]2C=C[C@@H](CO)O2)c(=O)[nH]c1=O [STAVUDINE]	> 1000 µM		> 1000 µM (inactive)	> 1000 µM (inactive)	617 µM (inactive)	678 µM (inactive)	583 µM (inactive)	> 1000 µM (inactive)	> 1000 µM (inactive)	350 µM (inactive)	> 1000 µM (inactive)	> 1000 µM (inactive)	902 µM (inactive)	348 µM (inactive)	> 1000 µM (inactive)	881 µM (inactive)	469 µM (inactive)	> 1000 µM (inactive)	> 1000 µM (inactive)
